Reference: ChEMBL document CHEMBL5506024, “Multitarget μ-Opioid Receptor Agonists─Neuropeptide FF Receptor Antagonists Induce Potent Antinociception with Reduced Adverse Side Effects” (J Med Chem, 2024)
Calls of active or inactive are those of the source.

Legend:
Mu-type opioid receptor [1] = molecular target: T1, Mu-type opioid receptor (Homo sapiens, UniProt P35372); experiment: Agonist activity at human MOP expressed in HEK293 cells coexpressing GloSensor-20F assessed as inhibition of forskolin-induced cAMP accumulation relative to control; format: functional, cell-based; details: filed as agonist
T1 sequence (P35372 whole entry): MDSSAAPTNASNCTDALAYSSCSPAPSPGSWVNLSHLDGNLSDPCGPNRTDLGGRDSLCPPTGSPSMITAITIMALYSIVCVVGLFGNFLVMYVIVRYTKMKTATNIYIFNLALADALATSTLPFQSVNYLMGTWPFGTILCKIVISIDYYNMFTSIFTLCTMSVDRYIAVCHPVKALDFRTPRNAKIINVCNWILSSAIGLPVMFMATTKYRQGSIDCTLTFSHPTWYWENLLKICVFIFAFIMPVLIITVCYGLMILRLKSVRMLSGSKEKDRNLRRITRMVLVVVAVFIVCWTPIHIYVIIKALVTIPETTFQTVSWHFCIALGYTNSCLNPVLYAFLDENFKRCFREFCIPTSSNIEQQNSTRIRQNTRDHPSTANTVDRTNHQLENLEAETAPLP

Mu-type opioid receptor [2] = molecular target: T1, Mu-type opioid receptor; experiment: Agonist activity at human Rluc8-tagged MOP expressed in HEK293 cells coexpressing eYFP-tagged beta-arrestin-2 assessed as beta-arrestin-2 recruitment incubated for 5 mins by luminometer analysis; format: functional, cell-based
[3] = molecular target: T2, Neuropeptide FF receptor 1 (Homo sapiens, UniProt Q9GZQ6); experiment: Displacement of [125I]-1DMeNPFF from human NPFFR1 expressed in CHO cell membrane at 0.5 uM incubated for 1 hr by Topcount counting method relative to control; format: cell membranes
T2 sequence (Q9GZQ6 whole entry): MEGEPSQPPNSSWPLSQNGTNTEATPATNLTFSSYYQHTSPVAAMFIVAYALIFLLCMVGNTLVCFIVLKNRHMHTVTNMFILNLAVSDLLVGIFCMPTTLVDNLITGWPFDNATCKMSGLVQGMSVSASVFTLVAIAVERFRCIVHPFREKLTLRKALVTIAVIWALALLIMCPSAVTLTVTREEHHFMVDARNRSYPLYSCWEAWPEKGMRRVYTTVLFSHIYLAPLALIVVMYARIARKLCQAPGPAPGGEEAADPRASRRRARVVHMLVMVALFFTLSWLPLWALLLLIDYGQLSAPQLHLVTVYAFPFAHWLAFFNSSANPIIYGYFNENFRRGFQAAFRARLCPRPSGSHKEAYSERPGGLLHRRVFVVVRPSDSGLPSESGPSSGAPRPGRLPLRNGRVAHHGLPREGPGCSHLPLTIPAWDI

[4] = molecular target: T2, Neuropeptide FF receptor 1; experiment: Antagonist activity at human NPFFR1 expressed in CHO cell membrane assessed as inhibition of NPVF induced cAMP response at 5 uM incubated for 1 hr by Topcount counting method relative to control; format: functional, cell membranes; design: scale not given: the % may be the effect or the level left
[5] = molecular target: T3, Neuropeptide FF receptor 2 (Homo sapiens, UniProt Q9Y5X5); experiment: Displacement of [125I]-1DMeNPFF from human NPFFR2 expressed in CHO cell membrane at 0.05 uM incubated for 1 hr by Topcount counting method relative to control; format: cell membranes; details: filed as antagonist
T3 sequence (Q9Y5X5 whole entry): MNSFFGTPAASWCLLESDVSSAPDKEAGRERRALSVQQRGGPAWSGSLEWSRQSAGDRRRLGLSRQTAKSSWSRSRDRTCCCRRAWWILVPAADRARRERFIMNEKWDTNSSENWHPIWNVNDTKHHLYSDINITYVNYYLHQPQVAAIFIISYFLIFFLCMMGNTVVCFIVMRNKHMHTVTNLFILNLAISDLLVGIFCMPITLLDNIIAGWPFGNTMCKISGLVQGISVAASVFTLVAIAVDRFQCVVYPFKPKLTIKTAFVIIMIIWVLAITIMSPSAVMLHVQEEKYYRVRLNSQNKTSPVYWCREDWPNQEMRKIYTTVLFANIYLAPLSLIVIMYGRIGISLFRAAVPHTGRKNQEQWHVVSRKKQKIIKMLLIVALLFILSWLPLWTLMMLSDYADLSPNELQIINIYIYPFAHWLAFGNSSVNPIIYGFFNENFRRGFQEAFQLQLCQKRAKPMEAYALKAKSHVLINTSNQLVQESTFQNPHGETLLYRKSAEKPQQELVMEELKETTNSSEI

[6] = molecular target: T3, Neuropeptide FF receptor 2; experiment: Antagonist activity at human NPFFR2 expressed in CHO cell membrane assessed as inhibition of NPVF induced cAMP response at 5 uM incubated for 1 hr by Topcount counting method relative to control; format: functional, cell membranes; design: scale not given: the % may be the effect or the level left; details: filed as antagonist
[7] = molecular target: T2, Neuropeptide FF receptor 1; experiment: Displacement of [125I]-1DMeNPFF from human NPFFR1 expressed in CHO cell membrane incubated for 1 hr by Topcount counting method; format: cell membranes
[8] = molecular target: T2, Neuropeptide FF receptor 1; experiment: Antagonist potency at human NPFFR1 expressed in CHO cell membrane assessed as inhibition of NPVF induced cAMP response incubated for 1 hr by Topcount counting method; format: functional, cell membranes; details: read-out: pA2 (converted)
[9] = molecular target: T3, Neuropeptide FF receptor 2; experiment: Displacement of [125I]-1DMeNPFF from human NPFFR2 expressed in CHO cell membrane incubated for 1 hr by Topcount counting method; format: cell membranes
[10] = molecular target: T3, Neuropeptide FF receptor 2; experiment: Antagonist potency at human NPFFR2 expressed in CHO cell membrane assessed as inhibition of NPVF induced cAMP response incubated for 1 hr by Topcount counting method; format: functional, cell membranes; details: read-out: pA2 (converted)
[11] = molecular target: Delta-type opioid receptor (Homo sapiens) (UniProt P41143); experiment: Agonist activity at human DOP expressed in HEK293 cells assessed as inhibition of forskolin-induced cAMP accumulation; format: functional, cell-based; details: filed as agonist
Chain of Delta-type opioid receptor (Homo sapiens) (P41143 whole entry): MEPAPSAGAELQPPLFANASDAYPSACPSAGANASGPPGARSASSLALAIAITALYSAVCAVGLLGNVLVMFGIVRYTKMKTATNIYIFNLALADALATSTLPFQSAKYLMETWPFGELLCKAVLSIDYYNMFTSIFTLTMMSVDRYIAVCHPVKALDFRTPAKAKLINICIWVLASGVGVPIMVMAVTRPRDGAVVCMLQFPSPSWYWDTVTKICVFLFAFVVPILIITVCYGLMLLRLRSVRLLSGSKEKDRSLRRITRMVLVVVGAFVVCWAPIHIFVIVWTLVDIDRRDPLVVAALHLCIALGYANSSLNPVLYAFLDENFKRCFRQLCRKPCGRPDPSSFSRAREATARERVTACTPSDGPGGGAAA

[12] = molecular target: T4, Kappa-type opioid receptor (Homo sapiens, UniProt P41145); experiment: Partial agonist activity at human KOR expressed in HEK293 cells assessed as forskolin-induced cAMP accumulation in presence of IBMX; format: functional, cell-based; details: filed as partial agonist
T4 sequence (P41145 whole entry): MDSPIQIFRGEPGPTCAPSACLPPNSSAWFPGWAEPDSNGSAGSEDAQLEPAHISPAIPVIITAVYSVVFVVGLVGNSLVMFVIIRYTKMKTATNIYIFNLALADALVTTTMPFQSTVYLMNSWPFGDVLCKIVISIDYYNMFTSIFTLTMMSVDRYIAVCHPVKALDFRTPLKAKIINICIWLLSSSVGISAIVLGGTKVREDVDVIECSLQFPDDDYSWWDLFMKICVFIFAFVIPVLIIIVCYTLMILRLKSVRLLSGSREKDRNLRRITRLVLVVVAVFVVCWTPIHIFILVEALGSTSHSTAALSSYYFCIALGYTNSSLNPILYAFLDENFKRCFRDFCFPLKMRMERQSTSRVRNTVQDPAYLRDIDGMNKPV

[13] = molecular target: Nociceptin receptor (Homo sapiens) (UniProt P41146); experiment: Partial agonist activity at human NOR expressed in HEK293 cells assessed as forskolin-induced cAMP accumulation in presence of IBMX; format: functional, cell-based; details: filed as partial agonist
Chain of Nociceptin receptor (Homo sapiens) (P41146 whole entry): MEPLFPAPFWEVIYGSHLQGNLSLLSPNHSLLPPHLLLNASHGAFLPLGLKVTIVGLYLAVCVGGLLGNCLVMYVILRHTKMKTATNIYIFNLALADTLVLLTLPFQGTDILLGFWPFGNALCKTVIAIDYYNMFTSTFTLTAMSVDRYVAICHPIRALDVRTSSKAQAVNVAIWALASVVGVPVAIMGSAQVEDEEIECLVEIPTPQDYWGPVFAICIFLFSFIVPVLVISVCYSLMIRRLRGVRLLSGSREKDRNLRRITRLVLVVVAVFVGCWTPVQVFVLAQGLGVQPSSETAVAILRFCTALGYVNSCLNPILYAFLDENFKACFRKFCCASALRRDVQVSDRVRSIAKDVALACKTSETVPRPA

[14] = molecular target: T5, Prolactin-releasing peptide receptor (Homo sapiens) (UniProt P49683); experiment: Agonist activity at human GPR10 expressed in CHO cells assessed as intracellular calcium release upto 10 uM by Fluo-4 AM dye based calcium mobilization assay; format: functional, cell-based
T5 sequence (whole entry): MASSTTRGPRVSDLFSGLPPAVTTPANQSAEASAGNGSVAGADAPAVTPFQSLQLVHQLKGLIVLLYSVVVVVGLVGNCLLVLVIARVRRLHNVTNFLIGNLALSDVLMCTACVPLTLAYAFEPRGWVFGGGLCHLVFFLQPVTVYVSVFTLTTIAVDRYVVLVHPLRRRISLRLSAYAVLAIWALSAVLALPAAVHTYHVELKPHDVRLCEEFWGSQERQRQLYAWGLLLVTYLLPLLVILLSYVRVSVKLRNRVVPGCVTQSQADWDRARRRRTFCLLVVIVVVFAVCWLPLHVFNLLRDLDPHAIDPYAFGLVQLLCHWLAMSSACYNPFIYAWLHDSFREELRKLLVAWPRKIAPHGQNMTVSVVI

[15] = molecular target: KiSS-1 receptor (Homo sapiens) (UniProt Q969F8); experiment: Agonist activity at human GPR54 expressed in CHO cells assessed as intracellular calcium release upto 10 uM by Fluo-4 AM dye based calcium mobilization assay; format: functional, cell-based
Chain of KiSS-1 receptor (Homo sapiens) (Q969F8 whole entry): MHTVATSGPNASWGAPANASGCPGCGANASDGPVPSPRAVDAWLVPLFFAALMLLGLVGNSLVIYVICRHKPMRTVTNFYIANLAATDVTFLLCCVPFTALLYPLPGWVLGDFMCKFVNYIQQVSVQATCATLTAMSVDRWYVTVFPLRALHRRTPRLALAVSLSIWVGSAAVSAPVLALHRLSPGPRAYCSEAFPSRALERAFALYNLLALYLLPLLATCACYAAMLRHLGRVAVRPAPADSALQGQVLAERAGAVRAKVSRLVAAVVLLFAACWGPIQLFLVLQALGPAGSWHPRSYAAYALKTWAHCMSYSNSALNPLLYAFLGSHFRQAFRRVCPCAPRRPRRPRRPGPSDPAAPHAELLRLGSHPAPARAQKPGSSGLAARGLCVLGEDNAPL

[16] = molecular target: T6, Pyroglutamylated RF-amide peptide receptor (Homo sapiens) (UniProt Q96P65); experiment: Agonist activity at human GPR103 expressed in CHO cells assessed as intracellular calcium release upto 10 uM by Fluo-4 AM dye based calcium mobilization assay; format: functional, cell-based
T6 sequence (whole entry): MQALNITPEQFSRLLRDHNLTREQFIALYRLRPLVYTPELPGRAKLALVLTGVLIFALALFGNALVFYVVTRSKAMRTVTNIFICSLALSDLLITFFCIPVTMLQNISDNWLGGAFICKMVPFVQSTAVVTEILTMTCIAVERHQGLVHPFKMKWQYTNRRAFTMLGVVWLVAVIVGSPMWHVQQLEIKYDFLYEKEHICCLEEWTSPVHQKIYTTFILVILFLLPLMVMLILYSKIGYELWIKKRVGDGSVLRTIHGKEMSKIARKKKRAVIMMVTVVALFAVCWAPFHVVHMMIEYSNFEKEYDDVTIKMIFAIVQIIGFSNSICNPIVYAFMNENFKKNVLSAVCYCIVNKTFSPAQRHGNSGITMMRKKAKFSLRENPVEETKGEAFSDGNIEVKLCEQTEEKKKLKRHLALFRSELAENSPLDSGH

[17] = molecular target: T5, Prolactin-releasing peptide receptor (Homo sapiens); experiment: Antagonist activity at human GPR10 expressed in CHO cells assessed as intracellular calcium release upto 10 uM by Fluo-4 AM dye based calcium mobilization assay; format: functional, cell-based
[18] = molecular target: KiSS-1 receptor (Homo sapiens) (UniProt Q969F8); experiment: Antagonist activity at human GPR54 expressed in CHO cells assessed as intracellular calcium release upto 10 uM by Fluo-4 AM dye based calcium mobilization assay; format: functional, cell-based
[19] = molecular target: T6, Pyroglutamylated RF-amide peptide receptor (Homo sapiens); experiment: Antagonist activity at human GPR103 expressed in CHO cells assessed as intracellular calcium release upto 10 uM by Fluo-4 AM dye based calcium mobilization assay; format: functional, cell-based
[20] = Cmax in mouse at 10 mg/kg, sc measured upto 24 hrs by LC-MS/MS analysis; format: ADME, organism-based; details: in vivo
[21] = Tmax in mouse at 10 mg/kg, sc measured upto 24 hrs by LC-MS/MS analysis; format: ADME, organism-based; details: in vivo
[22] = Half life in mouse at 10 mg/kg, sc measured upto 24 hrs by LC-MS/MS analysis; format: ADME, organism-based; details: in vivo
[23] = Drug concentration in mouse plasma at 10 mg/kg, sc measured after 2 hrs by LC-MS/MS analysis; format: ADME, organism-based
Mus musculus [24] = experiment: Antinociceptive activity in mouse at 2.5 to 10 mg/kg, sc measured after 6 hrs by tail immersion test; format: functional, organism-based; details: dose 2.5-10 mg/kg
Mus musculus [25] = experiment: Antinociceptive activity in mouse at 10 mg/kg, sc measured after 6 hrs in presence of naloxone methiodide by tail immersion test; format: functional, organism-based
Mus musculus [26] = experiment: Antinociceptive activity in mouse at 4.2 umol/kg, sc measured after 6 hrs in presence of naloxone methiodide by tail immersion test; format: functional, organism-based; details: dose 4.2 µmol/kg
Mus musculus [27] = experiment: Antinociceptive activity in mouse at 10 mg/kg, sc administered daily and measured on day 8; format: functional, organism-based
Mus musculus [28] = experiment: Antinociceptive activity in mouse assessed as basal nociceptive threshold at 10 mg/kg, sc administered daily and measured on day 2 to 7; format: functional, organism-based
[29] = Induction of naltrexone-precipitated withdrawal syndrome in sc dosed C57BL/6N mouse assessed as somatic signs administered for 8 days followed by naltrexone addition on day 9 after 2 hrs post last dose and measured after 30 mins; format: toxicity, organism-based; details: in vivo, 216.5 h, time 12990 min
[30] = Induction of naltrexone-precipitated withdrawal syndrome in sc dosed C57BL/6N mouse assessed as vegetative signs administered for 8 days followed by naltrexone addition on day 9 after 2 hrs post last dose and measured after 30 mins; format: toxicity, organism-based; details: in vivo, 216.5 h, time 12990 min
[31] = Toxicity in sc dosed C57BL/6N mouse assessed as induction of respiratory depression by measuring decrease in pulmonary rate by plethysmography; format: organism-based; details: in vivo
Mu-type opioid receptor [32] = molecular target: T1, Mu-type opioid receptor; experiment: Agonist activity at human MOP expressed in HEK293 cells coexpressing GloSensor-20F assessed as inhibition of forskolin-induced cAMP accumulation; format: functional, cell-based
Mu-type opioid receptor [33] = molecular target: T1, Mu-type opioid receptor; experiment: Agonist activity at human Rluc8-tagged MOP expressed in HEK293 cells coexpressing eYFP-tagged beta-arrestin-2 assessed as beta-arrestin-2 recruitment incubated for 5 mins by luminometer analysis relative to control; format: functional, cell-based; details: filed as agonist
[34] = molecular target: T4, Kappa-type opioid receptor; experiment: Antagonist activity at human KOR expressed in HEK293 cells assessed as forskolin-induced cAMP accumulation in presence of IBMX; format: functional, cell-based; details: filed as antagonist
[35] = molecular target: Nociceptin receptor (Homo sapiens) (UniProt P41146); experiment: Antagonist activity at human NOR expressed in HEK293 cells assessed as forskolin-induced cAMP accumulation in presence of IBMX; format: functional, cell-based; details: filed as antagonist
Mus musculus [36] = experiment: Antinociceptive activity in mouse at 4.2 umol/kg, sc administered chronically and measured on day 1; format: functional, organism-based; details: dose 4.2 µmol/kg
Mus musculus [37] = experiment: Antinociceptive activity in mouse at 4.2 umol/kg, sc administered chronically and measured on day 8; format: functional, organism-based; details: dose 4.2 µmol/kg
Mus musculus [38] = experiment: Antinociceptive activity in mouse at 4.2 umol/kg, sc administered daily and measured on day 1 and 8; format: functional, organism-based; details: dose 4.2 µmol/kg
[39] = Induction of naltrexone-precipitated withdrawal syndrome in sc dosed C57BL/6N mouse assessed as paw tremor administered for 8 days followed by naltrexone addition on day 9 after 2 hrs post last dose and measured after 30 mins; format: toxicity, organism-based; details: in vivo, 216.5 h, time 12990 min
[40] = Induction of naltrexone-precipitated withdrawal syndrome in sc dosed C57BL/6N mouse assessed as wet dog shake counts administered for 8 days followed by naltrexone addition on day 9 after 2 hrs post last dose and measured after 30 mins; format: toxicity, organism-based; details: in vivo, 216.5 h, time 12990 min

## Cc1cc(O)cc(C)c1C[C@H](N)C(=O)N(C)[C@H](C)C(=O)N[C@H]1Cc2c(ccc3ccccc23)CN(CC(=O)N[C@@H](CCCN2CCC(Cc3ccccc3)CC2)C(=O)N[C@@H](Cc2ccccc2)C(N)=O)C1=O
Mu-type opioid receptor [1]
  Emax: 73%
Mu-type opioid receptor [2]; hek293
  EC50: Not Active
[3]
  Activity: 22%
[4]
  Activity: 3%
[5]
  Activity: 51%
[6]
  Activity: 80%
[7]
  Ki: 1170 nM
[8]
  Kb: 5890 nM
[9]
  Ki: 54 nM
[10]
  Kb: 102 nM
[11]
  Activity: Active
[12]
  Activity: Active
[13]
  Activity: Active
[14]
  Activity: inactive
[15]
  Activity: inactive
[16]
  Activity: inactive
[17]
  Activity: inactive
[18]
  Activity: inactive
[19]
  Activity: inactive
[20]
  Cmax: 446 nM
[21]
  Tmax: 1.83 h
[22]
  half-life: 3.88 h
[23]
  concentration at 2 h: 474 nM
Mus musculus [24]
  Activity: Active

## CN1CC[C@]23c4c5ccc(O)c4O[C@H]2[C@@H](O)C=C[C@H]3[C@H]1C5 [MORPHINE]
Mus musculus [25]
  Activity: inactive
Mus musculus [26]
  Activity: inactive
Mus musculus [27]
  Activity: inactive
Mus musculus [28]
  Activity: inactive
[29]
  Activity: Toxic
[30]
  Activity: Toxic
[31]
  Activity: Dose-Dependent Effect

## Cc1cc(O)cc(C)c1C[C@H](N)C(=O)N[C@H](CCCNC(=N)N)C(=O)N[C@H]1Cc2ccccc2CN(CCC(=O)N[C@@H](CCCN2CCC(Cc3ccccc3)CC2)C(=O)N[C@@H](Cc2ccccc2)C(N)=O)C1=O
Mu-type opioid receptor [32]
  EC50: 9.3 nM
Mu-type opioid receptor [1]
  Emax: 91%
Mu-type opioid receptor [2]; read-out: EC50
  EC50: 125 nM
Mu-type opioid receptor [33]
  Emax: 42%
[3]; filed as antagonist
  Activity: 80%
[4]; filed as antagonist
  Activity: 62%
[5]
  Activity: 83%
[6]
  Activity: 54%
[34]
  Activity: Active
[35]
  Activity: Active
[20]
  Cmax: 984 nM
[21]
  Tmax: 2.67 h
[22]
  half-life: 3.08 h
[23]
  concentration at 2 h: 937 nM
Mus musculus [36]
  Activity: Active
Mus musculus [37]
  Activity: inactive
Mus musculus [38]
  Activity: Active
[39]
  Activity: Non-Toxic
[40]
  Activity: Non-Toxic
